Reference: patent US11173133B2, “Zeaxanthin formulations with additional ocular-active nutrients, for protecting eye health and treating eye disorders” (ZeaVision LLC, priority 2003, dated 2021)
Like-named read-outs stand apart in the source and are kept apart here.

What was measured:
[1] = naturally-occurring dextrorotatory stereoisomer; cited from earlier work
[2] = tested on: wet macular degeneration; assay: laser treatment using verteporfin in a patient with wet macular degeneration taking zeaxanthin; assay type: in vivo, human; settings: one patient, daily zeaxanthin capsules before and after treatment
Source text: As another example of the uncertainties and doubts that surround zeaxanthin among skilled physicians who treat eye diseases, the Inventor has personal knowledge of a patient who has the “wet” (or “exudative”) form of macular degeneration. This disease is characterized by aggressive growth of capillaries in and around certain layers of the retina, and it leads to rapid and devastating loss of vision. The best known treatment for wet AMD is called laser photocoagulation, or photodynamic therapy. It uses a drug called verteporfin, which is activated by a laser that is shone directly into the eyes of patients who have taken the drug. In October of 2003, a ZeaVision customer (a person) who was taking zeaxanthin capsules on a daily basis was scheduled to have a laser treatment using verteporfin, at the Wilmer Eye Institute in Baltimore, which is affiliated with the Johns Hopkins School of Medicine. This patient told their treating physician, who is one of the top experts in the world on treating macular degeneration, that they were taking zeaxanthin capsules on a daily basis. […] The results of that treatment, as measured up until the date this is being written, have been outstanding, and have been much better than was expected by the treating physician. […]

[3] = small-scale tests of high-dose zeaxanthin in human volunteers (safety, skin tone); assay type: in vivo; settings: dosages of 50 to 80 mg/day
Experimental: (§1) As mentioned above, the categories of pharmaceutical preparations and dietary (nutritional) supplements overlap, and there is no specific upper limit for dosages that would cause a dietary (nutritional) supplement to be reclassified as a pharmaceutical preparation. Safety data that was gathered on zeaxanthin, using high-dosage tests involving rats, indicated a “no adverse effect limit” (NOEL) level of at least 1200 mg/day. […] Accordingly, people who want tans, or who are planning to go on a vacation or other trip that will involve exposure to abnormally high levels of sunlight, may take large quantities of zeaxanthin (up to or even exceeding 100 mg/day), to help them avoid sunburn and obtain a deeper tanned color on their skin. Such use, even at very high quantities, would be regarded as taking a dietary supplement rather than a pharmaceutical, and such dosages would still remain far below the NOAEL levels that were determined by animal tests.

[4] = rats, high-dosage tests; Roche Vitamins 75-day Premarket Notification, FDA number 95S-0316; cited from earlier work
[5] = chemical / lab tests, cited from earlier work
[6] = tested on: sunburn; assay: sunburn after controlled high-intensity UV exposure of small skin areas in human volunteers; assay type: in vivo; settings: 50 to 80 mg/day; small areas of skin exposed to medical-grade UV lamp
Experimental: as §1

[7] = tested on: macular degeneration; settings: cited from earlier work
[8] = tested on: macular degeneration; settings: oral dosages; Newsome et al 1988 and others; cited from earlier work

For `O=C(O)CCCC[C@@H]1CCSS1` (racemic) [lipoic acid], the “anti-oxidant activity versus S (levorotatory) isomers” value [1] is listed as “better anti-oxidant activity”.
In the case of `CC1=C(/C=C/C(C)=C/C=C/C(C)=C/C=C/C=C(C)/C=C/C=C(C)/C=C/C2=C(C)C[C@@H](O)CC2(C)C)C(C)(C)C[C@H](O)C1` [zeaxanthin], the “results of laser-verteporfin treatment” value [2] is given as “outstanding”, the “safety in human volunteers” value [3] is given as “entirely safe” and the “"no adverse effect limit" (NOEL) level” value [4] is given as “at least 1200 mg/day”. For the same molecule, the “potency in absorbing and quenching oxygen free radicals (anti-oxidant), versus lutein” value [5] was “more potent and effective than lutein”, the “potency in absorbing and quenching oxygen free radicals (anti-oxidant), versus lutein” value ([5]; listed as Zeaxanthin) was “better and more potent anti-oxidant than lutein” and the “risk and severity of sunburn” value [6] was “effective in reducing a person's risk and severity of sunburn”.
For `[Zn]` [zinc], the “level of protection against macular degeneration” value ([7]; AREDS-1, high dosages (zinc 80 mg/day), some but not all patient categories) is listed as “low and weak level of protection”, the “benefits of zinc in the AREDS-1 trial” value ([7]; compared with the combination of vitamins A, C, and E) is listed as “strong enough to roughly match the benefits provided by a combination of vitamins A, C, and E” and the “results of oral zinc in macular degeneration and other ocular problems” value [8] is listed as “good, although not especially strong”.
